PubChem BioAssay (NCI)
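Exposure lasted 48 hours, with cells grown in 96-well plates and compounds tested at five concentrations. The concentration for 50% growth inhibition is given as GI50. The concentration for full growth arrest is given as TGI.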

Experiments:
Test in all cases: NCI anticancer screen, dose series, 48 h
SN12C renal = tested on: SN12C renal
CAKI-1 renal = tested on: CAKI-1 renal
LOX IMVI melanoma = tested on: LOX IMVI melanoma
K-562 leukemia = tested on: K-562 leukemia
HL-60(TB) leukemia = tested on: HL-60(TB) leukemia
UO-31 renal = tested on: UO-31 renal
HOP-92 NSCLC = tested on: HOP-92 NSCLC
NCI-H23 lung = tested on: NCI-H23 lung
SNB-19 CNS = tested on: SNB-19 CNS
MDA-MB-231 breast = tested on: MDA-MB-231 breast

SMILES	GI50 (SN12C renal) [µM]	TGI (SN12C renal) [µM]	GI50 (CAKI-1 renal) [µM]	TGI (CAKI-1 renal) [µM]	GI50 (LOX IMVI melanoma) [µM]	TGI (LOX IMVI melanoma) [µM]	GI50 (K-562 leukemia) [µM]	TGI (K-562 leukemia) [µM]	GI50 (HL-60(TB) leukemia) [µM]	TGI (HL-60(TB) leukemia) [µM]	GI50 (UO-31 renal) [µM]	TGI (UO-31 renal) [µM]	GI50 (HOP-92 NSCLC) [µM]	TGI (HOP-92 NSCLC) [µM]	GI50 (NCI-H23 lung) [µM]	TGI (NCI-H23 lung) [µM]	GI50 (SNB-19 CNS) [µM]	TGI (SNB-19 CNS) [µM]	GI50 (MDA-MB-231 breast) [µM]	TGI (MDA-MB-231 breast) [µM]
COc1cc(C2C3=C(COC3=O)Nc3c2ccc2c3CCCC2)cc2c1OCO2 (stereo not given)	0.0723	> 100	0.0775	> 100	0.0652	> 100	0.0351	> 100	0.0316	0.09	0.337	> 100	0.364	20.8	0.0439	13.7	0.0531	> 77.4	0.0779	
COc1cccc2c1C(=O)c1c(O)c3c(c(O)c1C2=O)C[C@@](O)(C(=O)CO)CC3OC1CC(O)C(O)C(C)O1 (stereo not given in full)		8.19		12.1		2.53		5.51		0.55		2.41		2.26		0.501		2.93		6
NCCOc1ccccc1/C=C1\c2ccccc2-c2ccc([N+](=O)[O-])cc21	1.41	2.82	1.38	2.72	1.33	2.66			1.54	3.07	1.3	2.61	1.33	2.75	1.7	3.23			1.58	2.99
COc1cc(-c2cc(/C=C/C(=O)c3ccc(Cl)c(Cl)c3)[nH]n2)cc(OC)c1OC	13.7	> 100	16.9	> 100	3.39	16.4	4.96	64.4	7.18	36.7	5.73	> 100	2.53	8.25	23.4	> 100	9.83	> 100	8.65	> 100
C/C=C/[C@H]1O[C@@H]2C(=C[C@H]1O)C(=O)O[C@H]2C	16.6	33.6	5.3	17.1	15	31.5	7.55	> 33.8	35.7	> 100	7.51	> 54.4	1.55	22.1	16.4	44.2	35.6	> 54.6	17.3	34.2
CCN(CC)CCN(Cc1ccc(F)cc1)c1ccc(CO)c(Cl)c1	27.7	> 100	1.85	17.3	21.1	52.5	10.2	41.5	23.1	> 58.5	19.5	95.1	2.66	19.3	35.4	> 100	> 100	> 100	12.2	54.2
C[C@]12CC[C@H]3[C@@H](C[C@@H]4SC(Nc5ccccc5)=N[C@@]45CC(O)CC[C@]35C)[C@@H]1CCC2O (stereo not given in full)	1.65	3.28	2.32	5.68	1.33	2.77	2.45	12.6	2.02	6.87	1.67	3.05	2.84	6.77	2.03	5.04	1.86	3.77	1.99	4.63
OCCNCCCOc1ccc2ncnc(Nc3ccc(Oc4cccc(C(F)(F)F)c4)c(Cl)c3)c2c1	1.43	2.83	2.99	11.6	1.71	3.15	1.79	4.48			1.29	2.57	1.05	2.37	1.63	3.13			1.72	3.2
COc1c(-c2ccc(O)c(O)c2)oc2c(O)c(O)cc(O)c2c1=O		31		> 100		29.4		46.4				> 100		> 100		> 100		> 100		> 100
O=C1C(=O)c2ccccc2C(O)=C1CCCc1ccc(C2CCCCCC2)cc1	2.12	> 100	0.432	26	0.322	10.5	0.447	> 34.8	0.698	11.1	0.612	8.94	3.01	24.9	0.649	15.8	0.803	> 100	5.76	42.2
Cc1[nH]c(-c2nc3ccccc3[nH]2)c(C)c1C(=O)NC(C)C1CCCCC1 (stereo not given)	10.5	26	10.4	22.2	10	29.7	3.45	> 100	3.36	13.1	11.9	25.6	10.2	25.3	12.6	31.5	10.6	24.8	10.4	29.4
CCC(=O)Nc1ccccc1C#C/C=C\C#Cc1ccccc1C(F)(F)F	2.22	> 50	1.53	> 30.4	5.14	> 50	2.29	> 50	1.18	> 10.4	2.59	> 50	3.01	> 36.1	5.27	> 50	5.52	> 50	3.13	> 29.3
CC1(C)C(=O)/C=C\C(=O)C(C)(C)C(=O)/C=C\C(=O)C(C)(C)C(=O)/C=C\C(=O)C(C)(C)C(=O)/C=C\C1=O		54.8		31.2		> 53.8		39.4		10.4		56		29.1		51.6		> 71.1		> 100
Cc1ccc(C2=C(c3ccccc3)C(c3ccccc3)Oc3ccc(C)cc32)cc1 (stereo not given)	17.3	34.3	12.7	31.4	13.8	32	8.29	42.7	11	40.7	4.37	17	11.4	28.1	2.2	5.53			13	30.5
Oc1ccc(CCNCc2cc3c(cc2Br)OCO3)cc1		> 100				> 100		> 100		84.4		> 100		> 100		> 100		> 100		> 100
O=[n+]1c2ccccc2n([O-])c2cc(Cl)ccc21	3.52	14.1	3.28	13.1	2.83	11.9	3.02	12.8	2.07	4.47	3.52	15	2.14	8.29	4	25	9.46	39.5	4.21	22.2
Cc1cc(C(=O)O)c(C)n1-c1cccc(C(=O)O)c1	> 100	> 100			> 100	> 100	> 100	> 100	> 100	> 100	> 100	> 100	> 100	> 100	> 100	> 100	> 100	> 100	> 100	> 100
COC(=O)/C=C1/SC(N2N=C(c3cccs3)CC2c2ccc(F)cc2)=NC1=O (stereo not given)	3.29	11	2.82	10.2	1.61	3.06			2.88	6.35	1.49	2.9	2.4	5.67	2.33	5.82	2.51	6.32	2.96	8.16
CC(=O)C1=C(C)N(C)C2(O)C=CC(=O)C3=C(O)c4ccccc4C(=O)C312 (stereo not given)	3.13	8.81	3.52	9.65			3.14	> 100	> 100	> 100	27	> 100	2.61	8.48	5.21	46	2.18	27	4.96	21.6
C=CC/C(=C\COP(=O)(OCc1ccc([N+](=O)[O-])o1)N(C)CCCCCl)CC/C=C(\C)CCC=C(C)C (stereo not given)	13.6	26.4	8.03	21.2	13.8	31.4	17.3	> 100	21.9	> 100	12.6	25.1	14.5	27.6			19.5	34.9	12.7	34.1
Oc1cccc(/C=N/Nc2nnc(N/N=C/c3cccc(O)c3)c3ccccc23)c1		30.5		83.3		34.1		47.6				52		76.1		48.6		> 100		35.8
CCOC(=O)c1c(C)nc2c(c1N)CC(=O)N2CCc1ccccc1	0.434	18.3			0.384	14.7	0.424	> 100	0.374	13.1	1.03	21.9	0.496	18.7	5.46	23	4.52	23.3	0.896	14
Cc1ccn2c(CCc3nnc4cc(C)ccn34)nnc2c1		> 100		> 100						0.623		> 100		> 100		> 100		> 100		> 100
CN1CCN(c2nc(NCCCNc3ccnc4cc(Cl)ccc34)c3ccccc3n2)CC1	4.97	18			1.96	4.2	2.64	10.9	2.14	4.39	2.09	5.93	2.07	6.43	10.6	24	3.77	15.3	2.76	8.94
CC(/C=C/c1ccccc1)=N\NC(N)=S		> 100		> 100		> 100				41.7		> 100		> 100		> 100		79.2		> 100
C[C@]1(Cn2ccnn2)C(C(=O)O)N2C(=O)CC2S1(=O)=O (stereo not given in full)	> 100	> 100	> 100	> 100			> 100	> 100	> 100	> 100	> 100	> 100	> 100	> 100	> 100	> 100	> 100	> 100	> 100	> 100
CN1CCN(Cc2ccc(NC(=O)c3cncc(C#Cc4cncc5nccnc45)c3)cc2C(F)(F)F)CC1	1.97	13.9	2.18	9.09	0.695	5.48	0.005	9.86	0.342	4.76	2.16	> 50			2.16	11	9	18.9	0.869	4.59
COc1ccc(/C=C2\CN(Cc3cn(CCNc4ccnc5cc(Cl)ccc45)nn3)C/C(=C\c3ccc(OC)c(OC)c3)C2=O)cc1OC	2.36	6.79	7.22	> 100	2.1	4.82	3.21	> 100	2.42	9.37	14.5	31			7.45	37.8	3.59	> 100	2.56	7.68
